Data reported in patent US9102899B2, “Organic compounds” (Givaudan SA, priority 2004, dated 2015).

Key:
[1] = Odour threshold by gas chromatograph with sniff port, panel of trained individuals; settings: GC sniff port; absolute amount of compound delivered at the sniff port; same panel, couples evaluated on the same day
Description: According to standard procedures known to the person skilled in the art, threshold values for volatile perfumery compounds were determined on a gas chromatograph equipped with a sniff port by a panel of trained individuals. The last concentration smelled by each individual was recorded as the individual threshold value expressed in ng (absolute amount of compound delivered at the sniff port). All compounds have been evaluated by the same panel. The couples (saturated and unsaturated compound) were evaluated on the same day.

Compound | Odour threshold [1] [ng] | melting point [°C]
CCC(C)=C(C#N)c1ccccc1 (racemic) [Example 3, 3-Methyl-2-phenyl-pent-2-ene nitrile] | 3 | 
CCC(C)C(C#N)c1ccccc1 (centres unmarked) [Comparison Example 3A, reference compound] | 26 | 
CCCCCCC(C#N)c1ccccc1 (centres unmarked) [Comparison Example 2A, reference compound] | 15 | 
CC(C)=C/C=C(/C#N)c1ccccc1 [Example 6, (2E)-5-Methyl-2-phenyl-hexa-2,4-diene nitrile] |  | 66 to 67
CCCCCC=C(C#N)c1ccccc1 (stereo in doubt) [Example 2, (2E)-2-Phenyl-oct-2-ene nitrile] | 2 | 
